Reference: patent publication US20230257480A1, “ENHANCING BLOOD-BRAIN BARRIER DRUG TRANSPORT BY TARGETING ENDOGENOUS REGULATORS” (THE BOARD OF TRUSTEES OF THE LELAND STANFORD JUNIOR …, priority 2019, published 2023)

Test system: aged brain endothelial cells
Experiment: scRNA-seq of aged brain endothelial cells after pharmacologic ALPL inhibition
Assay type: in vivo, mice
Source text: FIG. 21A includes an image and histogram showing holo-transferrin uptake in ALPL+/− cortical vasculature (n=6, paired two-sided t-test). FIG. 21B is an MA plot of differentially expressed genes (FDR<0.05) from aged mice after administration of ALPL inhibitor and vehicle (7,036 capillary cells, n=4 mice pooled per group, MAST with Bonferroni correction). FIG. 21C includes violin plots showing transferrin receptor (Tfrc) expression across vessel segments, following the paradigm in FIG. 21B (1,171 arterial, 7,036 capillary, and 430 venous cells, MAST with Bonferroni correction).
Cell lysis, first-strand synthesis and cDNA synthesis was performed using the Smart-seq-2 protocol as described previouslyl39-141 in 384-well format, with some modifications. Briefly, brain endothelial cells (CD31+/CD45−) were sorted using SH800S (Sony) sorters on the highest purity setting (‘Single cell’). Plasma-647 fluorescence was recorded for each cell and corresponding sorted well. cDNA synthesis was performed using the Smart-seq2 protocol140-142. After cDNA amplification (23 cycles), concentrations were determined via the PicoGreen quantitation assay. Cells passing quality control were selected through custom scripts and cDNA concentrations normalized to ˜0.2 ng/μL using the TPPLabtech Mosquito HTS and Mantis (Formulatrix) robotic platforms. Libraries were prepared and pooled using the Nextera XT kits (Illumina), following the manufacturer's instructions. Libraries were then sequenced on the Nextseq or Novaseq (Illumina) using 2×75 bp paired-end reads and 2×8 bp index reads with a 200-cycle kit (Illumina, 20012861). Samples were sequenced at an average of 1.5M reads per cell. Raw sequencing files were demultiplexed with bcl2fastq, reads were aligned using STAR, and gene counts made using HTSEQ version 0.6.1p1. Downstream analysis was performed as previously described58, and plasma fluorescence of each cell correlated (Spearman) with gene expression and zonation59.
Mice were treated with six doses of ALPL inhibitor (613810, Millipore Sigma; 2,5-Dimethoxy-N-(quinolin-3-yl)benzenesulfonamide, Tissue-Nonspecific Alkaline Phosphatase Inhibitor, MLS-0038949; C17H16N2O4S; CAS #496014-13-2) or ‘Vehicle’ control over three days, injected intraperitoneally twice per day (8.75 mg/kg). ‘Vehicle’ treatments consisted of phosphate-buffered saline (PBS) with a matching concentration of DMSO (less than 4% v/v). After the sixth treatment, mice were injected intravenously with 150 μL of Atto 647N-labeled plasma (as above), human holo-transferrin (T4132, Millipore Sigma, 40 mg/kg), transferrin receptor antibody (BE0175, BioXcell, 20 mg/kg), or 3-kDa dextran-FITC (10 mg/kg, Thermo Fisher). Plasma, human holo-transferrin, and transferrin receptor antibody were infused 20 h before sacrifice, while 3-kDa dextran-FITC was given 2 h before sacrifice, as previously described143. After extensive perfusion, CNS cells were isolated as described above. Cell pellets were additionally incubated in Red Blood Cell Lysis Buffer (Millipore Sigma, R7757) for 2 minutes to ensure high CNS cell purity. Brain endothelial cells were distinguished by CD3 I+/CD45− staining and parenchymal cells by CD31−/CD45− staining. […]

Structure (SMILES): COc1ccc(OC)c(S(=O)(=O)Nc2cnc3ccccc3c2)c1 [ALPL inhibitor, 2,5-Dimethoxy-N-(quinolin-3-yl)benzenesulfonamide]
- TFRC expression on the aged BBB (aged BBB, upon ALPL inhibition): strongly upregulated
- ferroportin expression on the aged BBB (aged BBB, upon ALPL inhibition): strongly upregulated
- transferrin receptor expression increase in capillaries (aged mice, capillary cells, after ALPL inhibition): ~70%
- transferrin receptor expression increase in venous cells (aged mice, venous cells, after ALPL inhibition): ~89%
- pct, ALPL inh., Fcgrt (receptor gene Fcgrt, ALPL inhibitor-treated group): 0.849
- % increase, Fcgrt (receptor gene Fcgrt, aged BBB, ALPL inhibition vs control): 24.2%
- pct, ALPL inh., Lpar6 (receptor gene Lpar6, ALPL inhibitor-treated group): 0.446
- % increase, Lpar6 (receptor gene Lpar6, aged BBB, ALPL inhibition vs control): 37.0%
- pct, ALPL inh., Scarb1 (receptor gene Scarb1, ALPL inhibitor-treated group): 0.45
- % increase, Scarb1 (receptor gene Scarb1, aged BBB, ALPL inhibition vs control): 11.1%
- pct, ALPL inh., Tfrc (receptor gene Tfrc, ALPL inhibitor-treated group): 0.723
- % increase, Tfrc (receptor gene Tfrc, aged BBB, ALPL inhibition vs control): 70.1%
- pct, ALPL inh., Slc6a6 (transporter gene Slc6a6, ALPL inhibitor-treated group): 0.99
- % increase, Slc6a6 (transporter gene Slc6a6, aged BBB, ALPL inhibition vs control): 24.9%
- pct, ALPL inh., Slc7a1 (transporter gene Slc7a1, ALPL inhibitor-treated group): 0.72
- % increase, Slc7a1 (transporter gene Slc7a1, aged BBB, ALPL inhibition vs control): 12.2%
- pct, ALPL inh., Slc16a2 (transporter gene Slc16a2, ALPL inhibitor-treated group): 0.66
- % increase, Slc16a2 (transporter gene Slc16a2, aged BBB, ALPL inhibition vs control): 16.5%
- pct, ALPL inh., Slc16a4 (transporter gene Slc16a4, ALPL inhibitor-treated group): 0.42
- % increase, Slc16a4 (transporter gene Slc16a4, aged BBB, ALPL inhibition vs control): 18.8%
- pct, ALPL inh., Slc22a8 (transporter gene Slc22a8, ALPL inhibitor-treated group): 0.71
- % increase, Slc22a8 (transporter gene Slc22a8, aged BBB, ALPL inhibition vs control): 11.0%
- pct, ALPL inh., Slc25a1 (transporter gene Slc25a1, ALPL inhibitor-treated group): 0.24
- % increase, Slc25a1 (transporter gene Slc25a1, aged BBB, ALPL inhibition vs control): 10.7%
- pct, ALPL inh., Slc26a10 (transporter gene Slc26a10, ALPL inhibitor-treated group): 0.19
- % increase, Slc26a10 (transporter gene Slc26a10, aged BBB, ALPL inhibition vs control): 17.8%
- pct, ALPL inh., Slc39a8 (transporter gene Slc39a8, ALPL inhibitor-treated group): 0.34
- % increase, Slc39a8 (transporter gene Slc39a8, aged BBB, ALPL inhibition vs control): 10.9%
- pct, ALPL inh., Slc39a10 (transporter gene Slc39a10, ALPL inhibitor-treated group): 0.89
- % increase, Slc39a10 (transporter gene Slc39a10, aged BBB, ALPL inhibition vs control): 12.1%
- % increase, Slc40a1 (transporter gene Slc40a1 (ferroportin), aged BBB, ALPL inhibition vs control): 35.0%
- pct, ALPL inh., Slc40a1 (transporter gene Slc40a1, ALPL inhibitor-treated group): 0.62
- pct, ALPL inh., Slco1c1 (transporter gene Slco1c1, ALPL inhibitor-treated group): 0.97
- % increase, Slco1c1 (transporter gene Slco1c1, aged BBB, ALPL inhibition vs control): 15.7%
